Results reported in the NIST ThermoML archive (doi:10.1021/je050540h).
Numbers after ± are expanded uncertainties.

Test: xn = mol fraction of the nth substance listed
Conditions: Liquid; for speed of sound: 7 kPa; for mass density / viscosity: 101 kPa

## CCCC(C)O (stereo not drawn) [pentan-2-ol] + C1CCCCC1
293.15 K, x2 = 0
  speed of sound: 1250 ± 3 m/s
  mass density: 809.04 ± 0.47 kg/m3
  viscosity: 4.001 ± 0.093 mPa·s
293.15 K, x2 = 0.0495
  speed of sound: 1247 ± 3 m/s
  mass density: 806.87 ± 0.47 kg/m3
  viscosity: 3.606 ± 0.084 mPa·s
293.15 K, x2 = 0.1002
  speed of sound: 1244 ± 3 m/s
  mass density: 804.68 ± 0.47 kg/m3
  viscosity: 3.195 ± 0.075 mPa·s
293.15 K, x2 = 0.2019
  speed of sound: 1238 ± 3 m/s
  mass density: 800.29 ± 0.47 kg/m3
  viscosity: 2.516 ± 0.06 mPa·s
293.15 K, x2 = 0.3067
  speed of sound: 1234 ± 3 m/s
  mass density: 796.06 ± 0.47 kg/m3
  viscosity: 1.922 ± 0.046 mPa·s
293.15 K, x2 = 0.4011
  speed of sound: 1231 ± 3 m/s
  mass density: 792.42 ± 0.48 kg/m3
  viscosity: 1.583 ± 0.038 mPa·s
293.15 K, x2 = 0.5085
  speed of sound: 1230 ± 3 m/s
  mass density: 788.62 ± 0.48 kg/m3
  viscosity: 1.317 ± 0.032 mPa·s
293.15 K, x2 = 0.6066
  speed of sound: 1232 ± 3 m/s
  mass density: 785.63 ± 0.48 kg/m3
  viscosity: 1.17 ± 0.029 mPa·s
293.15 K, x2 = 0.7118
  speed of sound: 1239 ± 3 m/s
  mass density: 782.94 ± 0.48 kg/m3
  viscosity: 1.067 ± 0.027 mPa·s
293.15 K, x2 = 0.8096
  speed of sound: 1247 ± 3 m/s
  mass density: 780.86 ± 0.48 kg/m3
  viscosity: 1.045 ± 0.026 mPa·s
293.15 K, x2 = 0.9049
  speed of sound: 1259 ± 3 m/s
  mass density: 779.29 ± 0.48 kg/m3
  viscosity: 1.009 ± 0.025 mPa·s
293.15 K, x2 = 0.9557
  speed of sound: 1267 ± 3 m/s
  mass density: 778.62 ± 0.48 kg/m3
  viscosity: 0.997 ± 0.025 mPa·s
298.15 K, x2 = 0
  speed of sound: 1232 ± 3 m/s
  mass density: 805.01 ± 0.48 kg/m3
  viscosity: 3.273 ± 0.077 mPa·s
298.15 K, x2 = 0.0495
  speed of sound: 1229 ± 3 m/s
  mass density: 802.77 ± 0.48 kg/m3
  viscosity: 2.969 ± 0.071 mPa·s
298.15 K, x2 = 0.1002
  speed of sound: 1225 ± 3 m/s
  mass density: 800.52 ± 0.48 kg/m3
  viscosity: 2.658 ± 0.063 mPa·s
298.15 K, x2 = 0.2019
  speed of sound: 1218 ± 3 m/s
  mass density: 796 ± 0.48 kg/m3
  viscosity: 2.125 ± 0.051 mPa·s
298.15 K, x2 = 0.3067
  speed of sound: 1213 ± 3 m/s
  mass density: 791.67 ± 0.48 kg/m3
  viscosity: 1.659 ± 0.04 mPa·s
298.15 K, x2 = 0.4011
  speed of sound: 1210 ± 3 m/s
  mass density: 787.98 ± 0.48 kg/m3
  viscosity: 1.385 ± 0.034 mPa·s
298.15 K, x2 = 0.5085
  speed of sound: 1209 ± 3 m/s
  mass density: 784.11 ± 0.48 kg/m3
  viscosity: 1.178 ± 0.029 mPa·s
298.15 K, x2 = 0.6066
  speed of sound: 1211 ± 3 m/s
  mass density: 781.09 ± 0.48 kg/m3
  viscosity: 1.056 ± 0.026 mPa·s
298.15 K, x2 = 0.7118
  speed of sound: 1216 ± 3 m/s
  mass density: 778.32 ± 0.49 kg/m3
  viscosity: 0.97 ± 0.024 mPa·s
298.15 K, x2 = 0.8096
  speed of sound: 1224 ± 3 m/s
  mass density: 776.18 ± 0.49 kg/m3
  viscosity: 0.952 ± 0.024 mPa·s
298.15 K, x2 = 0.9049
  speed of sound: 1235 ± 3 m/s
  mass density: 774.54 ± 0.49 kg/m3
  viscosity: 0.924 ± 0.023 mPa·s
298.15 K, x2 = 0.9557
  speed of sound: 1243 ± 3 m/s
  mass density: 773.86 ± 0.49 kg/m3
  viscosity: 0.912 ± 0.023 mPa·s
303.15 K, x2 = 0
  speed of sound: 1214 ± 3 m/s
  mass density: 800.9 ± 0.48 kg/m3
  viscosity: 2.774 ± 0.066 mPa·s
303.15 K, x2 = 0.0495
  speed of sound: 1210 ± 3 m/s
  mass density: 798.6 ± 0.48 kg/m3
  viscosity: 2.474 ± 0.059 mPa·s
303.15 K, x2 = 0.1002
  speed of sound: 1206 ± 3 m/s
  mass density: 796.28 ± 0.48 kg/m3
  viscosity: 2.237 ± 0.054 mPa·s
303.15 K, x2 = 0.2019
  speed of sound: 1199 ± 3 m/s
  mass density: 791.65 ± 0.48 kg/m3
  viscosity: 1.82 ± 0.044 mPa·s
303.15 K, x2 = 0.3067
  speed of sound: 1193 ± 3 m/s
  mass density: 787.23 ± 0.49 kg/m3
  viscosity: 1.441 ± 0.035 mPa·s
303.15 K, x2 = 0.4011
  speed of sound: 1189 ± 3 m/s
  mass density: 783.48 ± 0.49 kg/m3
  viscosity: 1.233 ± 0.03 mPa·s
303.15 K, x2 = 0.5085
  speed of sound: 1187 ± 3 m/s
  mass density: 779.56 ± 0.49 kg/m3
  viscosity: 1.058 ± 0.026 mPa·s
303.15 K, x2 = 0.6066
  speed of sound: 1189 ± 3 m/s
  mass density: 776.49 ± 0.49 kg/m3
  viscosity: 0.957 ± 0.024 mPa·s
303.15 K, x2 = 0.7118
  speed of sound: 1194 ± 3 m/s
  mass density: 773.65 ± 0.49 kg/m3
  viscosity: 0.885 ± 0.022 mPa·s
303.15 K, x2 = 0.8096
  speed of sound: 1201 ± 3 m/s
  mass density: 771.44 ± 0.49 kg/m3
  viscosity: 0.871 ± 0.022 mPa·s
303.15 K, x2 = 0.9049
  speed of sound: 1211 ± 3 m/s
  mass density: 769.74 ± 0.49 kg/m3
  viscosity: 0.845 ± 0.022 mPa·s
303.15 K, x2 = 0.9557
  speed of sound: 1219 ± 3 m/s
  mass density: 769.07 ± 0.49 kg/m3
  viscosity: 0.837 ± 0.021 mPa·s
